The record followed here is patent US6632809B2, “Gyrase inhibitors and uses thereof” (Vertex Pharmaceuticals Incorporated, priority 2000, dated 2003).

Sequence of DNA gyrase (374 kDa Gyr A2B2 subunit from Staphylococcus aureus) (P0A0K8 whole entry): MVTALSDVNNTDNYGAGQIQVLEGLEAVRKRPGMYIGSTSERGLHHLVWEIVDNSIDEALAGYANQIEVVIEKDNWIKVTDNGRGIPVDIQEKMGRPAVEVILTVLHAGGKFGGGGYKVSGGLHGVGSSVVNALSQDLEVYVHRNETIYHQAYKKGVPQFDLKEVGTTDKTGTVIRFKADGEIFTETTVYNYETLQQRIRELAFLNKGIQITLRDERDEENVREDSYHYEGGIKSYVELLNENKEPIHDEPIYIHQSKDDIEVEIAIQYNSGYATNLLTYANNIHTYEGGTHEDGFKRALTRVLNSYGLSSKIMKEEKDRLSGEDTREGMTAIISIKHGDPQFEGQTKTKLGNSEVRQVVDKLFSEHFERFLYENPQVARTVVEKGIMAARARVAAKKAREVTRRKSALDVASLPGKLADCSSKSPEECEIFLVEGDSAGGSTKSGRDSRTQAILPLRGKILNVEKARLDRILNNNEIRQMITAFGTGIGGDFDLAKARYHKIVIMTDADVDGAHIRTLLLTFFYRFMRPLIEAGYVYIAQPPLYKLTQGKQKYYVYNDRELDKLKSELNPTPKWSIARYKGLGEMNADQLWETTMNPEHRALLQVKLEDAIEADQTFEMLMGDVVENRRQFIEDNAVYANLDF
Sequence of DNA gyrase (374 kDa Gyr A2B2 subunit from Staphylococcus aureus) (P20831 whole entry, further chain): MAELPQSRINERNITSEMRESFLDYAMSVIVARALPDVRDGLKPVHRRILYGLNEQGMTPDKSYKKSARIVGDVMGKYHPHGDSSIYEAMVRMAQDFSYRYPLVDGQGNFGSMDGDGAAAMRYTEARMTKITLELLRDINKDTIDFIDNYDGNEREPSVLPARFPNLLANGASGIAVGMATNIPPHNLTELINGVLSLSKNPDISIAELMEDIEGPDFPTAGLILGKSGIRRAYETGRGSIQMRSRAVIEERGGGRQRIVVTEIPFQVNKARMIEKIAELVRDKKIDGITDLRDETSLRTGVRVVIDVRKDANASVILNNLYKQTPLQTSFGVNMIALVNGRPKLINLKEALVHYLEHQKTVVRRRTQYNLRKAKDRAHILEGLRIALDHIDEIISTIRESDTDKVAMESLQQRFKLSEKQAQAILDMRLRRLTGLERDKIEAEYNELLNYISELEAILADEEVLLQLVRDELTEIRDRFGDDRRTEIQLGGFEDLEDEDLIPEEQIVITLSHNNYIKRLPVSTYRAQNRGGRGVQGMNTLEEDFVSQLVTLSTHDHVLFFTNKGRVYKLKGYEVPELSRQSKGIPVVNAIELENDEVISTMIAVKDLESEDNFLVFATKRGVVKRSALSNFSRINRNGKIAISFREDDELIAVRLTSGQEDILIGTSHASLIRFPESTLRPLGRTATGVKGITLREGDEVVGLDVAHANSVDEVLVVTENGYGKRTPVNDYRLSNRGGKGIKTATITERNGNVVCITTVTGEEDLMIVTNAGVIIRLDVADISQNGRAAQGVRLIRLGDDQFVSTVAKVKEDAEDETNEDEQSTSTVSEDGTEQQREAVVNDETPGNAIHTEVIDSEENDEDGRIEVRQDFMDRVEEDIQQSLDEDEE

One test has as its target DNA gyrase (374 kDa Gyr A2B2 subunit from Staphylococcus aureus) (Staphylococcus aureus, UniProt P0A0K8). Description: Gyrase ATPase Assay. It is filed as biochemical. The settings on record: 10 μM concentration; ATPase assay at 30° C., 0.9 mM ATP; average of duplicate values. Here is the method:
The ATP hydrolysis activity of DNA gyrase was measure by coupling the production of ADP through pyruvate kinase/lactate dehydrogenase to the oxidation of NADH. This method has been described previously (Tamura and Gellert, 1990, J. Biol. Chem., 265, 21342).
ATPase assays are carried out at 30° C. in buffered solutions containing 100 mM TRIS pH 7.6, 1.5 mM MgCl2, 50 mM KCl. The coupling system contains (final concentrations) 2.5 mM phosphoenol pyruvate, 200 μM nicotinamide adenine dinucleotide (NADH), 1 mM DTT, […], and 10 ug/ml lactate dehydrogenase. 40 nanomolar enzyme (374 kDa Gyr A2B2 subunit from Staphylococcus aureus) and a DMSO solution of the inhibitor to a final concentration of 4% are added and the reaction mixture is allowed to incubate for 10 minutes at 30° C. The reaction is then started by the addition of ATP to a final concentration of 0.9 mM and the rate of NADH disappearance at 340 nanometers is measured over the course of 10 minutes. The percent inhibition values are determined from rate versus concentration profiles and are reported as the average of duplicate values.
The compound numbers correspond to the compound numbers in Table 1. Compounds having an activity designated as “A” provided a percent inhibition value below 50 percent; compounds having an activity designated as “B” provided a percent inhibition value between 50 and 75 percent; and compounds having an activity designated as “C” provided a percent inhibition value greater than 75 percent.
`CCNC(=S)Nc1nc2cc(-c3ccccc3)ccc2[nH]1` [Ia-36]: the “Gyrase Inhibitory Activity (percent inhibition)” value is “A (provided a percent inhibition value below 50 percent)”.

The test is the same for the next values; noted with them: 10 μM concentration; ATPase assay at 30° C., 0.9 mM ATP; average of duplicate values; read-out: Gyrase Inhibitory Activity (percent inhibition).
Regarding `CCOC(=O)Nc1nc2cc(-c3ccccc3)ccc2[nH]1` [Ia-1], the inhibition at 10 µM was in the range of 50 to 75%. Turning to `CCOC(=O)Nc1nc2cc(-c3cccs3)ccc2[nH]1` [Ia-2], the inhibition at 10 µM lay within 50 to 75%. On the same count and under the same terms, the value for `CCOC(=O)Nc1nc2cc(-c3ccccn3)ccc2[nH]1` [Ia-3] was 50 to 75%; that for `CCOC(=O)Nc1nc2cc(-c3ccncc3)ccc2[nH]1` [Ia-4] was more than 75%; that for `Nc1nc2cc(-c3ccccc3)ccc2[nH]1` [Ia-6] was less than 50%.

Take `COC(=O)Nc1nc2cc(-c3ccccc3)ccc2[nH]1` [Ia-7]: the inhibition at 10 µM is less than 50%. Still for that read-out and setting: the value for `C#CCOC(=O)Nc1nc2cc(-c3ccccc3)ccc2[nH]1` [Ia-8] was less than 50%. On to `CCOC(=O)Nc1nc2cc(-c3ccccc3C(F)(F)F)ccc2[nH]1` [Ia-9], for which the inhibition at 10 µM was less than 50%.

As to `CCOC(=O)Nc1nc2cc(-c3ccccc3)ccc2n1C` [Ia-10], the inhibition at 10 µM was less than 50%. The same measure, in the same setting: the figure for `CCOC(=O)Nc1nc2cc(-c3cccnc3)ccc2[nH]1` [Ia-11, (5-Pyridin-3-yl-1H-benzoimidazol-2-yl)-carbamic acid ethyl ester] is more than 75%; for `CCOC(=O)Nc1nc2cc(-c3ccc(N(C)C)cc3)ccc2[nH]1` [Ia-12] it is 50 to 75%. In the case of `CCCc1cc(-c2ccccc2)cc2nc(NC(=O)OCC)[nH]c12` [Ia-13], the inhibition at 10 µM is less than 50%. For the molecule `CCOC(=O)Nc1nc2cc(-c3cc(F)c(F)cc3F)ccc2[nH]1` [Ia-14], the inhibition at 10 µM lay within 50 to 75%. The same measure, in the same setting: the value for `CCOC(=O)Nc1nc2cc(-c3cccc(OCC)c3)ccc2[nH]1` [Ia-15] was 50 to 75%. Consider `CCOC(=O)Nc1nc2cc(-c3cnc(OC)nc3OC)ccc2[nH]1` [Ia-16], for which the inhibition at 10 µM was more than 75%. Regarding `CCOC(=O)Nc1nc2cc(-c3cccnc3)cc(Br)c2[nH]1` [Ia-17], the inhibition at 10 µM is more than 75%. Still for that read-out and setting: the figure for `CCOC(=O)Nc1nc2cc(-c3ccc(OC)nc3)ccc2[nH]1` [Ia-18] is more than 75%; for `CCOC(=O)Nc1nc2cc(-c3ccccc3)cc(Br)c2[nH]1` [Ia-19] it is more than 75%. With `O=C(Nc1nc2cc(-c3ccccc3)cc(Br)c2[nH]1)N1CCCCC1` [Ia-20], the inhibition at 10 µM is less than 50%. Same read-out and setting: the value for `CCOC(=O)Nc1nc2cc(-c3cncnc3)ccc2[nH]1` [Ia-21] was more than 75%.

With `CCOC(=O)Nc1nc2cc(-c3cnc(OC)nc3)ccc2[nH]1` [Ia-22], the inhibition at 10 µM is more than 75%.

As to `CCOC(=O)Nc1nc2cc(-c3ccc(OC)cc3)ccc2[nH]1` [Ia-23], the inhibition at 10 µM is more than 75%.

With `CCOC(=O)Nc1nc2cc(-c3cccc(C(=O)O)c3)ccc2[nH]1` [Ia-24], the inhibition at 10 µM was more than 75%.

In the case of `CCOC(=O)Nc1nc2cc(-c3ccc(OC)c(OC)c3)ccc2[nH]1` [Ia-26], the inhibition at 10 µM was 50 to 75%. For `CCNC(=O)Nc1nc2cc(C(=O)O)ccc2[nH]1` [Ia-33], the inhibition at 10 µM is less than 50%. Still for that read-out and setting: the value for `CCNC(=S)Nc1nc2cc(-c3cccnc3)ccc2[nH]1` [Ia-34] was more than 75%.

On to `CCNC(=O)Nc1nc2cc(-c3cnc(NCC(=O)O)nc3)ccc2[nH]1` [Ia-35], for which the inhibition at 10 µM was more than 75%. On the same count and under the same terms, the value for `CCNC(=S)Nc1nc2cc(-c3cnc(NCC(=O)OC(C)(C)C)nc3)ccc2[nH]1` [Ia-37] was more than 75%; that for `O=C(Nc1nc2cc(-c3cccnc3)ccc2[nH]1)NC1CC1` [Ia-38] was 50 to 75%; that for `CCNC(=S)Nc1nc2cc(-c3cnc(NCC(=O)O)nc3)ccc2[nH]1` [Ia-39] was more than 75%. Turning to `CCNC(=O)Nc1nc2cc(-c3cnc(NC(COC(C)(C)C)C(=O)OC(C)(C)C)nc3)ccc2[nH]1` (stereo not shown) [Ia-40], the inhibition at 10 µM is more than 75%. Take `CC(C)(C)OCC(Nc1ncc(-c2ccc3[nH]c(NC#N)nc3c2)cn1)C(=O)OC(C)(C)C` (stereo not shown) [Ia-41]: the inhibition at 10 µM was less than 50%. As to `CCNC(=O)Nc1nc2cc(-c3ccccc3)cc(C)c2[nH]1` [Ia-43], the inhibition at 10 µM is more than 75%.

Regarding `CCNC(=O)Nc1nc2cc(-c3cnc(NC4CC4)nc3)ccc2[nH]1` [Ia-44], the inhibition at 10 µM is more than 75%. Take `CCNC(=O)Nc1nc2cc(-c3cnc(NC(CO)C(=O)O)nc3)ccc2[nH]1` (stereo not shown) [Ia-45]: the inhibition at 10 µM was more than 75%. Still for that read-out and setting: the figure for `CCNC(=O)Nc1nc2cc(C(=O)NOC(C)(C)C)ccc2[nH]1` [Ia-46] is less than 50%; for `CCNC(=O)Nc1nc2cc(-c3cnc(NCC4CCCO4)nc3)ccc2[nH]1` (stereo not shown) [Ia-47] it is more than 75%; for `CCNC(=O)Nc1nc2cc(-c3cnc(NCc4ccccn4)nc3)ccc2[nH]1` [Ia-48] it is more than 75%. Same read-out and setting: the value for `CCNC(=O)Nc1nc2cc(-c3cnc(NCc4ccc(OC)cc4)nc3)ccc2[nH]1` [Ia-49] was more than 75%. The same measure, in the same setting: the figure for `CCNC(=O)Nc1nc2cc(-c3ccccc3)cc(OC)c2[nH]1` [Ia-50] is 50 to 75%; for `CCNC(=O)Nc1nc2cc(-c3cnc(OC)nc3OC)ccc2[nH]1` [Ia-52] it is more than 75%; for `CCNC(=O)Nc1nc2cc(-c3cnc(N4CCOCC4)nc3)ccc2[nH]1` [Ia-53] it is more than 75%. For the molecule `CCNC(=O)Nc1nc2cc(-c3cnc(N)nc3)ccc2[nH]1` [Ia-54], the inhibition at 10 µM is more than 75%. On the same count and under the same terms, the value for `CCNC(=O)Nc1nc2cc(-c3cnc(NCCN4CCCC4)nc3)ccc2[nH]1` [Ia-55] was more than 75%.

As to `CCNC(=O)Nc1nc2cc(-c3cnc(NCc4cccc(F)c4)nc3)ccc2[nH]1` [Ia-56], the inhibition at 10 µM was more than 75%. Still for that read-out and setting: the value for `CCNC(=O)Nc1nc2cc(-c3cnc(NC4CCCC4)nc3)ccc2[nH]1` [Ia-57] was more than 75%.

Take `CCNC(=O)Nc1nc2cc(-c3cncc(C(=O)OCC)c3)ccc2[nH]1` [Ia-59]: the inhibition at 10 µM is more than 75%. `CCNC(=O)Nc1nc2cc(-c3cncc(C(=O)O)c3)ccc2[nH]1` [Ia-60]: the inhibition at 10 µM is more than 75%. Still for that read-out and setting: the value for `CCNC(=O)Nc1nc2cc(-c3cnc(NCc4ccc(F)c(Cl)c4)nc3)ccc2[nH]1` [Ia-61] was more than 75%; that for `CCNC(=O)Nc1nc2cc(-c3cccnc3)c(F)cc2[nH]1` [Ia-62] was more than 75%. For `CCNC(=O)Nc1nc2cc(-c3cnc(NCCc4ccccn4)nc3)ccc2[nH]1` [Ia-63], the inhibition at 10 µM was more than 75%. Still for that read-out and setting: the value for `CCNC(=O)Nc1nc2cc(-c3cnc(N4CCN(C)CC4)nc3)ccc2[nH]1` [Ia-64] was more than 75%. The same measure, in the same setting: the figure for `CCNC(=O)Nc1nc2cc(-c3cnc(N4CCCC4)nc3)ccc2[nH]1` [Ia-65] is more than 75%; for `CCNC(=O)Nc1nc2cc(-c3cnc(NCC)nc3)ccc2[nH]1` [Ia-66] it is more than 75%; for `CCOC(=O)Nc1nc2cc(-c3ccc4[nH]c(NC(=O)OCC)nc4c3)ccc2[nH]1` [Ia-67] it is more than 75%. Consider `CCOC(=O)Nc1nc2cc(-c3cnc(N4CCN(C(=O)OC(C)(C)C)CC4)nc3)ccc2[nH]1` [Ia-69], for which the inhibition at 10 µM was 50 to 75%. On to `CCOC(=O)Nc1nc2cc(-c3cnc(N4CCNCC4)nc3)ccc2[nH]1` [Ia-70], for which the inhibition at 10 µM is more than 75%.

In the case of `CCOC(=O)Nc1nc2cc(-c3ccc(=O)[nH]c3)ccc2[nH]1` [Ia-71], the inhibition at 10 µM is less than 50%. Still for that read-out and setting: the value for `CCOC(=O)Nc1nc2cc(-c3cnc(N)nc3)ccc2[nH]1` [Ia-72] was more than 75%; that for `CCCCNc1nc2cc(-c3cccnc3)ccc2[nH]1` [Ia-73] was less than 50%. With `CCCNc1nc2cc(-c3cccnc3)ccc2[nH]1` [Ia-74], the inhibition at 10 µM was less than 50%. Same read-out and setting: the value for `COC(=O)CCNc1nc2cc(-c3cccnc3)ccc2[nH]1` [Ia-75] was less than 50%. As to `COC(=O)Nc1nc2cc(-c3cnc(NCC(=O)OC(C)(C)C)nc3)ccc2[nH]1` [Ia-76], the inhibition at 10 µM is more than 75%. With `CCOC(=O)Nc1ncc(-c2ccc3[nH]c(NC(=O)OCC)nc3c2)cn1` [Ia-77], the inhibition at 10 µM is more than 75%. Consider `CN(C)CCn1c(N)nc2cc(-c3cccnc3)ccc21` [Ia-78], for which the inhibition at 10 µM was less than 50%.

On to `CNc1nc2cc(-c3cccnc3)ccc2n1CCN(C)C` [Ia-79], for which the inhibition at 10 µM was less than 50%. On the same count and under the same terms, the value for `CCOC(=O)Nc1nc2cc(-c3cnc(NCC(=O)O)nc3)ccc2[nH]1` [Ia-80] was more than 75%; that for `CCOC(=O)Nc1nc2cc(-c3cccc(C(=O)OC)c3)ccc2[nH]1` [Ia-81] was 50 to 75%.

For the molecule `CCCC(=O)Nc1nc2cc(-c3ccccc3)ccc2[nH]1` [Ia-82], the inhibition at 10 µM is less than 50%. Same read-out and setting: the value for `CCNC(=O)Nc1nc2cc(-c3ccccc3)ccc2[nH]1` [Ia-84, 1-Ethyl-3-(5-phenyl-1H-benzoimidazol-2-yl)-urea] was more than 75%. `CN1CCCC1C(=O)Nc1nc2cc(-c3ccccc3)ccc2[nH]1` (stereo not shown) [Ia-85]: the inhibition at 10 µM was less than 50%. On the same count and under the same terms, the figure for `CCOC(=O)Nc1nc2cc(-c3cnc(NCCNC(=O)OC(C)(C)C)nc3)ccc2[nH]1` [Ia-86] is more than 75%.

What is called inhibition is the relative decrease from the control value, in per cent.
